The values below come from PMC9268571, “Parabens Permeation through Biological Membranes: A Comparative Study Using Franz Cell Diffusion System and Biomimetic Liquid Chromatography” (Molecules, 2022).

Read-outs that look alike come from different tables or passages of the source.

Data set [1] in a line: IAM chromatography (phospholipophilicity) on IAM.PC.MG. As to conditions: 0.1 M phosphate buffer pH 5.0/acetonitrile, extrapolated to 100% aqueous phase. The format is physicochemical. The procedure: (§1) Phospholipophilicity was experimentally determined using two IAM analytical columns, i.e., IAM.PC.MG (150 × 4.6 mm, 10 μm p.s., pore size: 300 Å) and IAM.PC.DD2 (150 × 4.6 mm, 10 μm p.s., pore size: 300 Å), both from Regis Chemical Company (Morton Grove, IL, USA). The analyses on the IAM.PC.MG were conducted on a LC-20 AD VP (from Shimadzu Corp., Kyoto, Japan), equipped with an ultraviolet (UV)–visible detector (Shimadzu Model SPD10 AV) set at λ = 254 nm. For the determinations on the IAM.PC.DD2, an alliance HPLC system (Waters Corporation, Milford, MA USA) with 2690/2695 separation module, 2996 PDA detector, 717 plus autosampler, and 2487 dual λ absorbance detector, was used at 254 nm wavelength instead. The methods were set, and chromatograms were recorded by Waters Empower® 3 software (Milford, MA USA). On both columns, employed eluents were 0.1 M phosphate buffer at pH 5.0 and acetonitrile at various percentages with a flow rate of 1.0 mL min^−1. All samples were dissolved in acetonitrile (ca. 10^−4 M), and chromatographic analyses were carried out at 22 ± 2 °C. The two different IAM stationary phases differ from each other in the end-capping of residual amino groups of the silica-propylamine core, which support C10 and C3 alkyl chains being end-capped by both decanoic and propionic anhydrides (IAM.PC.DD2), while IAM.PC.MG supports hydroxy groups being end-capped by methyl glycolate. […] Since all the compounds under our investigation required at least the addition of acetonitrile to the mobile phase to elute within 20 min, at least three different mobile phases containing acetonitrile in percentages (φ), ranging from 10% to 30% (v/v), were employed. All kw IAM values average at least three individual measurements, and the final values are reported as decimal logarithms.

A short description of data set [2]: IAM chromatography (phospholipophilicity) on IAM.PC.DD2. The format is physicochemical. The note with it: 0.1 M phosphate buffer pH 5.0/acetonitrile, extrapolated to 100% aqueous phase. On the procedure: as §1
On the set-up of data set [3]: method as in PubCHEM. The note with it: n-octanol–water; ref PubCHEM; cited from earlier work.
The nature of data set [4]: in vitro. The note with it: male, pig.
For data set [5] the following is noted: source not stated, no method described; cited from earlier work.

For the compound `COC(=O)c1ccc(O)cc1` [MP, Methyl 4-hydroxybenzoate], the “logkw IAM.MG” value in data set [1] is 0.615. Further, in data set [2], the “logkw IAM.DD2” value is on record as 1.306.
In the case of `CCOC(=O)c1ccc(O)cc1` [EP, Ethyl 4-hydroxybenzoate], in data set [1], the “logkw IAM.MG” value is on record as 0.956. Further, in data set [2], the “logkw IAM.DD2” value is reported as 1.751. Further, the “Log Kp * (determined in the present study)” value (experimental, Franz cell, porcine ear skin) is reported as −6.58 cm/s. The “time to maximum passage through the porcine skin” value (from the beginning of the experiment) is recorded as not above 120 min. In addition, the “Maximum Flux” value (porcine ear skin, saturated solution in PBS pH 5.0 as donor, receptor PBS pH 7.4, 37 °C, ± standard deviation) worked out at 2.35 ± 0.71 µg/cm^2/h. Besides, where the note is “porcine ear skin, median, 95% interval confidence in parentheses”, the “Permeation (%) (Median)” value is 0.110 (0–0.11) %. Also, the “Log P” value in data set [3] is given as 2.47. Further, in data set [4], the Papp at 24 h is 0.261 ×10⁻⁶ cm/s. In addition, in data set [5], the “S (Solubility in water)” value is 885 µg/mL.
For the compound `O=C(O)c1ccc(O)cc1` [pHBA, 4-Hydroxybenzoic acid], the “logkw IAM.MG” value in data set [1] is listed as less than 1. Also, the “logkw IAM.MG” value in data set [1] (listed as pHB) is listed as −0.955. In data set [2], the “logkw IAM.DD2” value is on record as less than 1. Also, in data set [2] (listed as pHB), the “logkw IAM.DD2” value is −1.054. For the same compound, where the note is “male, pig”, the “Maximum Flux” value is given as 12.68 ± 4.08 µg/cm^2/h, the “Permeation (%) (Median)” value was 0.997 (0–1.22) % and the “time to maximum passage through the porcine skin” value is not above 30 min. For the setting “pig”, the “Log Kp * (determined in the present study)” value is reported as −5.48 cm/s. This compound also had an apparent permeability coefficient (Papp) at 24 h in data set [4] of 3.33 ×10⁻⁶ cm/s.
For `CCCOC(=O)c1ccc(O)cc1` [PrP, Propyl 4-hydroxybenzoate], in data set [1], the “logkw IAM.MG” value is recorded as 1.339. For the same compound, in data set [2], the “logkw IAM.DD2” value is listed as 2.267. The “detection in receptor fluids” value (at any time (½–24 h), fully aqueous donor pH 5.0) is recorded as “not detected”.
In the case of `CCCCOC(=O)c1ccc(O)cc1` [BuP, Butyl 4-hydroxybenzoate], the “logkw IAM.MG” value in data set [1] is 1.818. In addition, the “logkw IAM.DD2” value in data set [2] is 2.812. In addition, the “Log P” value in data set [3] is listed as 3.57.
Turning to `CC(C)COC(=O)c1ccc(O)cc1` [iBuP, Isobutyl 4-hydroxybenzoate], in data set [1], the “logkw IAM.MG” value is 1.708. The “logkw IAM.DD2” value in data set [2] is reported as 2.448. The “Log P” value in data set [3] is given as 3.57. Also, in data set [5], the “S (Solubility in water)” value is 207 µg/mL.
In the case of `CC(C)OC(=O)c1ccc(O)cc1` [iPrP, Isopropyl 4-hydroxybenzoate], the “logkw IAM.MG” value in data set [1] was 1.227. The “logkw IAM.DD2” value in data set [2] is 1.914. Further, the “S (Solubility in water)” value in data set [5] is 500 µg/mL.
As for `O=C(OCc1ccccc1)c1ccc(O)cc1` [BzP, Benzyl 4-hydroxybenzoate], the “logkw IAM.MG” value in data set [1] was 2.292. The “logkw IAM.DD2” value in data set [2] was 2.735. Also, in data set [3], the “Log P” value is reported as 3.56. Moreover, the “S (Solubility in water)” value in data set [5] was 92 µg/mL.
